Laboratory results from publication PMC8764033, “Single-molecule analysis of specificity and multivalency in binding of short linear substrate motifs to the APC/C” (Nature Communications, 2022).
Where a SMILES comes first, the peptide text is derived from it.

Key:
[1] = test system: APC/C^Apc10-4A, Cdh1; experiment: SMOR assay, yeast APC/C^Apc10-4A, Cdh1; format: binding, Saccharomyces cerevisiae
Procedure: (§1) Yeast strains were derivatives of W303 and are listed in Supplementary Table 2. For APC/C purification, we used a strain carrying Cdc16-TAP and lacking Cdh1 (DOM1126); in most experiments, the strain also carried Apc1-GFP (NHY13). Yeast were grown in YPD media to OD600 = 0.8, collected and flash-frozen. Cells were lysed by bead beating in lysis buffer A (50 mM HEPES pH 7.5, 150 mM KCl, 10% glycerol, 0.2% Triton X-100, 63 µM B-glycerophosphate, 48 µM sodium fluoride, 1 µg ml^−1 pepstatin A, 1 µg ml^−1 leupeptin, 1 µg ml^−1 aprotinin, 1 mM PMSF, 1 mM DTT, 0.5 mM EDTA) and APC/C was purified using magnetic IgG beads. The beads were washed using wash buffer A (20 mM HEPES pH 7.5, 150 mM KCl, 10% Glycerol, 0.05% Triton X-100). After incubation with purified Cdh1 or Cdc20, the APC/C was cleaved off the beads with TEV protease in wash buffer A with 0.05% Tween-20 (for single-molecule studies) or 0.05% Triton X-100 (for ensemble assays such as ubiquitylation) and used immediately.
(§2) For all SMOR experiments, 24 × 50 mm high precision glass coverslips (Bioscience Tools) and drilled microscope slides were passivated with a combination of PEG and PEG-biotin (coverslips) or PEG only (slides) following a previously published protocol for SiMPull[31]. Reaction chambers (~20 µl) were created using double-sided tape and epoxy. Protein was immobilized on the surface with 0.2 mg ml^−1 NeutrAvidin in buffer C (20 mM HEPES pH 7.5, 150 mM KCl, 10% glycerol, 0.05% Tween-20, 1 mM DTT). Excess NeutrAvidin was washed away and incubated with either biotin-conjugated mouse monoclonal anti-Strep-Tag II antibody (LSBio, Cat. No. LS-C203632-100) or biotin-conjugated rabbit polyclonal anti-GFP antibody (Rockland, Cat. No. 600-406-215) diluted in buffer C + BSA (0.1 mg ml^−1; Molecular Biology Grade Bovine Serum Albumin). Activator WD40 and activated APC/C (typically 50 µl containing about 65 ng APC/C, of which only a small fraction is immobilized on the glass) were immobilized using anti-Strep-Tag II, while APC/C alone was immobilized with anti-GFP. SMOR results were similar when performed in the buffer (wash buffer B) used in polarization anisotropy.
(§3) To capture dynamic protein–protein interactions, dye-labeled substrate diluted in buffer C + BSA was added to the chamber containing immobilized proteins. Interactions were imaged by TIRF microscopy as described below. For optimal signal-to-noise ratio, peptide concentration was no greater than 1 nM. […]
(§4) Microscopy was performed with a Nikon Eclipse TE2000-E with Perfect Focus with a 100 × 1.49na oil, Apo TIRF DIC N2, 0.13-0.2, WD0.12 objective. Movies were recorded using the Andor iXon DU-897E-CSO. […]

[2] = test system: APC/C^Apc10-4A, Cdc20; experiment: SMOR assay, yeast APC/C^Apc10-4A, Cdc20; format: binding, Saccharomyces cerevisiae
Procedure: as §1, §2, §3, §4

[3] = target: T1, hCdh1^WD40 (Homo sapiens, UniProt Q9UM11); experiment: Fluorescence anisotropy, 10 nM Cy5-labeled peptide, hCdh1^WD40; format: binding
T1 construct: human Cdh1 (aa 165–484; pNH164); made in house; host or cells: Sf9 insect cells (baculovirus)
T1 sequence (Q9UM11 165-484): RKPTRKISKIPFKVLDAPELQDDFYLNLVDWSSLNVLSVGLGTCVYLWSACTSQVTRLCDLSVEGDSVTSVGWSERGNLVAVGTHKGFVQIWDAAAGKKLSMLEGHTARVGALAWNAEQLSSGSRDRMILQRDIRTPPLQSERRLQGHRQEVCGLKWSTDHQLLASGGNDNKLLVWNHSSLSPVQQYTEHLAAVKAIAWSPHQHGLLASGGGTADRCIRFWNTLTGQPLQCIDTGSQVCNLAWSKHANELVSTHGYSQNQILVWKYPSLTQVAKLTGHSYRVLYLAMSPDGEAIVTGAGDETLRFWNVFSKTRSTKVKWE
Procedure: Activators were cloned into the pFastBac HT A vector, with an N-terminal 2xStrep-Tag II. For some experiments, we constructed vectors for expression of the WD40 domains of yeast Cdh1 (aa 241–550; pNH144), human Cdh1 (aa 165–484; pNH164), or human Cdc20 (aa 162–484; pNH188). For SMOR, a C-terminal GFP tag was added. Bacmid plasmids are listed in Supplementary Table 3. Plasmids were transformed into DH10Bac cells, and purified Bacmid was used to transfect Sf9 cells to generate P1 baculovirus, which was used to generate P2 virus. SF9 cells were infected with the P2 virus for 48 h. […]
Fluorescent degron peptides carried a C-terminal Cy5 label (CPC Scientific) and are listed in Supplementary Table 4. For anisotropy experiments, 10 nM fluorescent peptide was mixed with various concentrations of purified Cdh1 WD40 in wash buffer B at room temperature for 1 min, which we determined was sufficient for the binding reaction to reach equilibrium. Fluorescence was measured on a K2 Multifrequency Fluorometer at 25 °C. All Cy5-labeled peptides were excited with polarized light at 635 nm and emission was detected using a 700/75 nm bandpass filter (ET series, Chroma). […] Results were the same when peptide binding was measured in the buffer used in SMOR assays (buffer C, below). […]

[4] = Supplementary Table 1, replicate 1
[5] = Supplementary Table 1, replicate 2

Molecule | binding (in words) [1] | Dwell Time (in words) [1, 4] | binding (in words) [2] | Dwell Time (in words) [2, 4] | Dwell Time (in words) [1, 5] | Dwell Time (in words) [2, 5] | binding to human Cdh1 (in words) [3]
CC[C@H](C)[C@H](NC(=O)[C@H](CC(=O)O)NC(=O)[C@H](CO)NC(=O)[C@H](C)NC(=O)[C@H](C)NC(=O)[C@H](C)NC(=O)[C@H](C)NC(=O)[C@H](CCCCN)NC(=O)[C@@H]1CCCN1C(=O)[C@H](CCCCN)NC(=O)[C@H](CCC(N)=O)NC(=O)[C@@H](N)CCC(=O)O)C(=O)N[C@H](C(=O)N[C@@H](C)C(=O)N[C@@H](CO)C(=O)N[C@@H](Cc1ccccc1)C(=O)N[C@@H](CC(N)=O)C(=O)N[C@@H](CCCCN)C(=O)N[C@@H](CCSC)C(=O)N[C@@H](CC(N)=O)C(=O)N[C@@H](CCCCN)C(=O)O)[C@@H](C)O [Hsl1 D box mutant] (H-EQKPKAAAASDITASFNKMNK-OH; N-terminus and C-terminus assumed) | No binding | no binding | No binding | no binding | – | – | –
CC[C@H](C)[C@H](NC(=O)[C@H](Cc1ccccc1)NC(=O)[C@H](CO)NC(=O)[C@H](CCCCN)NC(=O)[C@H](CO)NC(=O)[C@H](CCCNC(=N)N)NC(=O)[C@H](CC(N)=O)NC(=O)[C@H](CC(N)=O)NC(=O)[C@H](CC(=O)O)NC(=O)[C@H](CCCCN)NC(=O)[C@H](C)NC(=O)[C@H](C)NC(=O)[C@H](CC(C)C)NC(=O)[C@@H]1CCCN1C(=O)[C@H](CC(C)C)NC(=O)[C@H](CCCNC(=N)N)NC(=O)CNC(=O)[C@H](CCC(N)=O)NC(=O)[C@H](CCC(N)=O)NC(=O)[C@H](CCC(N)=O)NC(=O)[C@H](C)N)C(=O)N[C@@H](CCCCN)C(=O)O [ySecurin D box] (H-AQQQGRLPLAAKDNNRSKSFIK-OH; N-terminus and C-terminus assumed) | – | single frame | – | single frame | single frame | single frame | –
LIYVDKENGEPGTR-K(Cy5) [hSecurin KEN, Cy5-labeled KEN box peptide of human securin/Pttg1] | – | – | – | – | – | – | significant but low-affinity binding to Cdh1
LPKATRKALGTVNRATEKSVK-K(Cy5) [AurKB D box, Cy5-labeled D box peptide of Aurora B kinase] | – | – | – | – | – | – | significant but low-affinity binding to Cdh1
